Patent US20090099231A1, “3-Sulfonylamino-Pyrrolidine-2-One Derivatives as Factor Xa Inhibitors” (priority 2005, published 2009)
Structures can show the parent of a compound that is named as a salt.

How the values were obtained:
human Factor Xa = human Factor Xa (Homo sapiens, UniProt P00742); experiment: In vitro assay for inhibition of Factor Xa (fluorogenic assay, Rhodamine 110 bis-Cbz-glycylglycyl-L-arginine amide substrate); format: biochemical; conditions: for Factor Xa inhibitory activity: human Factor Xa 0.0003 U.ml-1, substrate 10 μM, 15 min preincubation, room temperature, pH 7.4; for Ki: Ki=IC50/(1+[Substrate]/Km), i.e. IC50 divided by 1.6, human Factor Xa fluorogenic assay
Method: Compounds of the present invention were tested for their Factor Xa inhibitory activity as determined in vitro by their ability to inhibit human Factor Xa in a fluorogenic assay, using Rhodamine 110, bis-Cbz-glycylglycyl-L-arginine amide as the fluorogenic substrate. Compounds were diluted from a 10 mM stock solution in dimethylsulfoxide at appropriate concentrations. Assay was performed at room temperature using buffer consisting of: 50 mM Tris-HCl, 150 mM NaCl, 5 mM CaCl2, pH 7.4 containing human Factor Xa (final concentration of 0.0003 U.ml-1). Compound and enzyme were preincubated for 15 min prior to addition of the substrate (final concentration of 10 μM). The reaction was stopped after 3 hrs with the addition of H-D-Phe-Pro-Arg-Chloromethylketone. An LJL-Analyst fluorimeter was used to monitor fluorescence with 485 nm excitation/535 nm emission. To obtain IC50 values the data were analysed using ActivityBase® and XLfit®.
Ki=IC50/(1+[Substrate]/Km)
The Ki value for the above assay can be obtained by dividing the IC50 value by 1.6.

human plasma = experiment: Measurement of Prothrombin Time (PT), time to clot formation in plasma; conditions: pooled plasma from 4 donors, test compound 0.03 to 100 uM, Thromboplastin C Plus
Method: Blood was collected into a sodium citrate solution (ratio 9:1) to give a final concentration of 0.38% citrate. Plasma was generated by centrifugation of citrated blood samples at 1200×g for 20 min at 4° C. and stored at −20° C. until use.
The PT test was performed using the BCS Coagulation Analyzer (Dade Behring). For assay, 50 ul of plasma containing test compound at concentrations ranging from 0.03 to 100 uM (made from a 100 uM stock containing 1% DMSO in plasma) was combined with 100 ul of Thromboplastin C Plus (Dade Behring). Upon addition of the reagents, absorbance at 405 nm was monitored and time to clot formation is determined (normal range for human plasma is 10.6-12.4 seconds).

human Factor Xa, sequence (P00742 235-488 limits assumed): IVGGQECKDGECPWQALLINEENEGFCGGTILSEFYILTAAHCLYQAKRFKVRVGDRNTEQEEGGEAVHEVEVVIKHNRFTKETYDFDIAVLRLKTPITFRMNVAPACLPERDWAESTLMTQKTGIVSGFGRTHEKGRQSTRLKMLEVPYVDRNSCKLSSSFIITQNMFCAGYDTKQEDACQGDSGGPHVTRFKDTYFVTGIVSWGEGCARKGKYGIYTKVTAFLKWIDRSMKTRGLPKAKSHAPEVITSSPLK
human Factor Xa, sequence (P00742 41-179 partner limits assumed): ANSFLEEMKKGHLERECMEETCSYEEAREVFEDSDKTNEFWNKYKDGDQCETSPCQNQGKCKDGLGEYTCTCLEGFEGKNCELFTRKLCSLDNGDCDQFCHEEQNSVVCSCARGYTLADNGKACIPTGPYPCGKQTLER

## Cl.O=C1[C@@H](NS(=O)(=O)c2ccc3cc(Cl)ccc3c2)CCN1c1ccc2c(c1)CCNC2 [Example 1, 6-Chloro-N-[(3S)-2-oxo-1-(1,2,3,4-tetrahydro-6-isoquinolinyl)-3-pyrrolidinyl]-2-naphthalenesulfonamide hydrochloride]
Human Factor Xa
  Factor Xa inhibitory activity: exhibit Factor Xa inhibitory activity
Human plasma
  activity in prothrombin time (PT) test: exhibit activity

## Cl.O=C1[C@@H](NS(=O)(=O)/C=C/c2ccc(Cl)s2)CCN1c1ccc2c(c1)CCNC2 [Example 2, (E)-2-(5-Chloro-2-thienyl)-N-[(3S)-2-oxo-1-(1,2,3,4-tetrahydro-6-isoquinolinyl)-3-pyrrolidinyl]ethenesulfonamide hydrochloride]
Human Factor Xa
  Factor Xa inhibitory activity: exhibit Factor Xa inhibitory activity
Human plasma
  activity in prothrombin time (PT) test: exhibit activity

## Cl.O=C1[C@@H](NS(=O)(=O)c2cc3ccc(Cl)cc3s2)CCN1c1ccc2c(c1)CCNC2 [Example 3, 6-Chloro-N-[(3S)-2-oxo-1-(1,2,3,4-tetrahydro-6-isoquinolinyl)-3-pyrrolidinyl]-1-benzothiophene-2-sulfonamide hydrochloride]
Human Factor Xa
  Ki: < 10 nM
  Factor Xa inhibitory activity: exhibit Factor Xa inhibitory activity
Human plasma
  activity in prothrombin time (PT) test: exhibit activity

## O=C1[C@@H](NS(=O)(=O)c2ccc3c(Cl)c[nH]c3c2)CCN1c1ccc2c(c1)CCNC2.O=CO [Example 4, 3-Chloro-N-[(3S)-2-oxo-1-(1,2,3,4-tetrahydro-6-isoquinolinyl)-3-pyrrolidinyl]-1H-indole-6-sulfonamide formate]
Human Factor Xa
  Factor Xa inhibitory activity: exhibit Factor Xa inhibitory activity
Human plasma
  activity in prothrombin time (PT) test: exhibit activity

## O=C1[C@@H](NS(=O)(=O)c2ccc3cc[nH]c3c2)CCN1c1ccc2c(c1)CCNC2.O=CO [Example 5, N-[(3S)-2-Oxo-1-(1,2,3,4-tetrahydro-6-isoquinolinyl)-3-pyrrolidinyl]-1H-indole-6-sulfonamide formate]
Human plasma
  activity in prothrombin time (PT) test: exhibit activity

## O=C1[C@@H](NS(=O)(=O)c2cc3ccc(Cl)cc3[nH]2)CCN1c1ccc2c(c1)CCNC2.O=CO [Example 6, 6-Chloro-N-[(3S)-2-oxo-1-(1,2,3,4-tetrahydro-6-isoquinolinyl)-3-pyrrolidinyl]-1H-indole-2-sulfonamide formate]
Human Factor Xa
  Ki: < 10 nM
  Factor Xa inhibitory activity: exhibit Factor Xa inhibitory activity
Human plasma
  activity in prothrombin time (PT) test: exhibit activity

## CN1CCc2cc(N3CC[C@H](NS(=O)(=O)/C=C/c4ccc(Cl)s4)C3=O)ccc2C1.O=CO [Example 7, (E)-2-(5-Chloro-2-thienyl)-N-[(3S)-1-(2-methyl-1,2,3,4-tetrahydro-6-isoquinolinyl)-2-oxo-3-pyrrolidinyl]ethenesulfonamide formate]
Human Factor Xa
  Factor Xa inhibitory activity: exhibit Factor Xa inhibitory activity
Human plasma
  activity in prothrombin time (PT) test: exhibit activity

## CN1CCc2cc(N3CC[C@H](NS(=O)(=O)c4cc5ccc(Cl)cc5s4)C3=O)ccc2C1.O=CO [Example 8, 6-Chloro-N-[(3S)-1-(2-methyl-1,2,3,4-tetrahydro-6-isoquinolinyl)-2-oxo-3-pyrrolidinyl]-1-benzothiophene-2-sulfonamide formate]
Human Factor Xa
  Ki: < 10 nM
  Factor Xa inhibitory activity: exhibit Factor Xa inhibitory activity
Human plasma
  activity in prothrombin time (PT) test: exhibit activity

## O=C1[C@@H](NS(=O)(=O)c2cc3cc(Cl)ccc3s2)CCN1c1ccc2c(c1)CCNC2 [Example 9, 5-Chloro-N-[(3S)-2-oxo-1-(1,2,3,4-tetrahydro-6-isoquinolinyl)-3-pyrrolidinyl]-1-benzothiophene-2-sulfonamide trifluoroacetate]
Human Factor Xa
  Factor Xa inhibitory activity: exhibit Factor Xa inhibitory activity
Human plasma
  activity in prothrombin time (PT) test: exhibit activity

## Cl.O=C1[C@@H](NS(=O)(=O)c2ccc(-c3ccc(Cl)s3)s2)CCN1c1ccc2c(c1)CCNC2 [Example 10, 5′-Chloro-N-[(3S)-2-oxo-1-(1,2,3,4-tetrahydro-6-isoquinolinyl)-3-pyrrolidinyl]-2,2′-bithiophene-5-sulfonamide hydrochloride]
Human Factor Xa
  Factor Xa inhibitory activity: exhibit Factor Xa inhibitory activity
Human plasma
  activity in prothrombin time (PT) test: exhibit activity

## Cl.O=C1[C@@H](NS(=O)(=O)c2ccc3cc(Cl)ccc3c2)CCN1c1ccc2c(c1)CNCC2 [Example 11, 6-Chloro-N-[(3S)-2-oxo-1-(1,2,3,4-tetrahydro-7-isoquinolinyl)-3-pyrrolidinyl]-2-naphthalenesulfonamide hydrochloride]
Human Factor Xa
  Factor Xa inhibitory activity: exhibit Factor Xa inhibitory activity
Human plasma
  activity in prothrombin time (PT) test: exhibit activity

## Cl.O=C1[C@@H](NS(=O)(=O)CCc2ccc(Cl)s2)CCN1c1ccc2c(c1)CNCC2 [Example 12, 2-(5-Chloro-2-thienyl)-N-[(3S)-2-oxo-1-(1,2,3,4-tetrahydro-7-isoquinolinyl)-3-pyrrolidinyl]ethanesulfonamide hydrochloride]
Human Factor Xa
  Factor Xa inhibitory activity: exhibit Factor Xa inhibitory activity
Human plasma
  activity in prothrombin time (PT) test: exhibit activity

## Cl.O=C1[C@@H](NS(=O)(=O)/C=C/c2ccc(Cl)s2)CCN1c1ccc2c(c1)CNCC2 [Example 13, (E)-2-(5-Chloro-2-thienyl)-N-[(3S)-2-oxo-1-(1,2,3,4-tetrahydro-7-isoquinolinyl)-3-pyrrolidinyl]ethenesulfonamide hydrochloride]
Human Factor Xa
  Factor Xa inhibitory activity: exhibit Factor Xa inhibitory activity
Human plasma
  activity in prothrombin time (PT) test: exhibit activity

## O=C1[C@@H](NS(=O)(=O)c2ccc3c(Cl)c[nH]c3c2)CCN1c1ccc2c(c1)CNCC2.O=CO [Example 14, 3-Chloro-N-[(3S)-2-oxo-1-(1,2,3,4-tetrahydro-7-isoquinolinyl)-3-pyrrolidinyl]-1H-indole-6-sulfonamide formate]
Human Factor Xa
  Factor Xa inhibitory activity: exhibit Factor Xa inhibitory activity
Human plasma
  activity in prothrombin time (PT) test: exhibit activity

## O=C1[C@@H](NS(=O)(=O)c2ccc3cc[nH]c3c2)CCN1c1ccc2c(c1)CNCC2.O=CO [Example 15, N-[(3S)-2-Oxo-1-(1,2,3,4-tetrahydro-7-isoquinolinyl)-3-pyrrolidinyl]-1H-indole-6-sulfonamide formate]
Human Factor Xa
  Factor Xa inhibitory activity: exhibit Factor Xa inhibitory activity

## Cl.O=C1[C@H](NS(=O)(=O)c2ccc3cc(Cl)ccc3c2)CCN1c1ccc2c(c1)CCNC2 [Example 16, 6-Chloro-N-[(3R)-2-oxo-1-(1,2,3,4-tetrahydro-6-isoquinolinyl)-3-pyrrolidinyl]-2-naphthalenesulfonamide hydrochloride]
Human Factor Xa
  Factor Xa inhibitory activity: exhibit Factor Xa inhibitory activity
Human plasma
  activity in prothrombin time (PT) test: exhibit activity

## Cl.O=C1[C@@H](NS(=O)(=O)/C=C/c2ccc(Cl)s2)CCN1c1ccc2c(c1F)CCNC2 [Example 18, (E)-2-(5-Chloro-2-thienyl)-N-[(3S)-1-(5-fluoro-1,2,3,4-tetrahydro-6-isoquinolinyl)-2-oxo-3-pyrrolidinyl]ethenesulfonamide hydrochloride]
Human Factor Xa
  Factor Xa inhibitory activity: exhibit Factor Xa inhibitory activity
Human plasma
  activity in prothrombin time (PT) test: exhibit activity

## Cl.O=C1[C@@H](NS(=O)(=O)c2ccc3c(Cl)c[nH]c3c2)CCN1c1ccc2c(c1F)CCNC2 [Example 19, 3-Chloro-N-[(3S)-1-(5-fluoro-1,2,3,4-tetrahydro-6-isoquinolinyl)-2-oxo-3-pyrrolidinyl]-1H-indole-6-sulfonamide hydrochloride]
Human Factor Xa
  Factor Xa inhibitory activity: exhibit Factor Xa inhibitory activity
Human plasma
  activity in prothrombin time (PT) test: exhibit activity

## Cl.O=C1[C@@H](NS(=O)(=O)c2ccc3cc(Cl)ccc3c2)CCN1c1cc2c(cc1F)CNCC2 [Example 20, 6-Chloro-N-[1-(7-fluoro-1,2,3,4-tetrahydro-6-isoquinolinyl)-2-oxo-3-pyrrolidinyl]-2-naphthalenesulfonamide hydrochloride]
Human Factor Xa
  Factor Xa inhibitory activity: exhibit Factor Xa inhibitory activity
Human plasma
  activity in prothrombin time (PT) test: exhibit activity

## Cl.O=C1[C@@H](NS(=O)(=O)c2cc3ccc(Cl)cc3s2)CCN1c1cc2c(cc1F)CNCC2 [Example 21, 6-Chloro-N-[(3S)-1-(7-fluoro-1,2,3,4-tetrahydro-6-isoquinolinyl)-2-oxo-3-pyrrolidinyl]-1-benzothiophene-2-sulfonamide hydrochloride]
Human Factor Xa
  Ki: < 10 nM
  Factor Xa inhibitory activity: exhibit Factor Xa inhibitory activity
Human plasma
  activity in prothrombin time (PT) test: exhibit activity

## CN([C@H]1CCN(c2ccc3c(c2)CCNC3)C1=O)S(=O)(=O)/C=C/c1ccc(Cl)s1 [Example 34, (E)-2-(5-Chloro-2-thienyl)-N-methyl-N-[(3S)-2-oxo-1-(1,2,3,4-tetrahydro-6-isoquinolinyl)-3-pyrrolidinyl]ethenesulfonamide hydrochloride]
Human Factor Xa
  Ki: < 10 nM
  Factor Xa inhibitory activity: exhibit Factor Xa inhibitory activity
